Test results from patent US12102643B2, “Aqueous pharmaceutical formulation of hydrocortisone sodium phosphate and monothioglycerol” (ANTARES PHARMA, INC., priority 2022, dated 2024).

Experiments:
[1] = Room temperature stability of crystalline as compared to amorphous drug substance (water content, Karl Fischer); format: physicochemical; settings: for Assay / Total Impurities: Room temperature
Text: The Drug Substance (DS) Hydrocortisone Sodium Phosphate (HSP) is a sodium salt of phosphate ester of hydrocortisone. The high-water solubility of HSP enables the development of aqueous injectable solutions. The DS meets the requirements of USP monograph, “Hydrocortisone sodium phosphate, USP,” except for loss on drying (LOD) specification, instead the Karl Fischer method is used to test water content which meets the British Pharmacopoeia specification. This is because the crystalline form obtained through the manufacturing process is a crystalline hydrate. To meet the USP LOD specification of NMT 5%, the manufacturing process would need to involve a lyophilization step which leads to the formation of an amorphous form of HSP. […] The water content test method utilizes the British Pharmacopoiea (BP) HSP monograph semi-micro water content method instead of the less specific USP HSP monograph water content Loss on Drying method. […]

[2] = Forced degradation of hydrocortisone sodium phosphate API under stress conditions (0.1 N HCl, 0.1 N NaOH, dry heat); format: physicochemical; settings: 3 stress conditions: 0.1 N HCl, qualitative
Procedure: To develop this method, Hydrocortisone sodium phosphate API was kept under stress conditions. These stress conditions included treatment with 0.1 N HCl, 0.1 N NaOH and dry heat. This was performed to investigate the nature of API and its compatibility with the stress conditions. It also helped generate degradation products to assess the specificity of the HPLC method under development. Information on degradation products and the conditions used to generate them was used to optimize the method for better resolution of such degradation products on chromatogram. FIGS. 3A-3C show chromatograms of HCP under stress conditions.
The proportions in which the degradants formed depended on the stress condition. Stress studies performed on the API were done for qualitative purpose only.

[3] = Genotoxicity assessment (ICH M7)
[4] = Stability study of HCP prototype formulations in PFS at 25° C. and 40° C. (appearance, pH, assay and related substances by stability indicating HPLC); settings: accelerated storage 40° C., effect of pH

Row | Compound | Assay ([1]; Time 0) | Total Impurities ([1]; Time 0) | Assay ([1]; Time 3 mo.) | Total Impurities ([1]; Time 3 mo.) | Assay ([1]; Time 6 mo.) | Total Impurities ([1]; Time 6 mo.) | further results
1 | C[C@]12CCC(=O)C=C1CC[C@@H]1[C@@H]2[C@@H](O)C[C@@]2(C)[C@H]1CC[C@]2(O)C(=O)COP(=O)(O)O [hydrocortisone sodium phosphate] |  |  |  |  |  |  | hygroscopicity ([1]; room temperature): highly hygroscopic; stability compared to crystalline form ([1]; room temperature): not stable as compared to crystalline form
2 | Hydrocortisone sodium phosphate |  |  |  |  |  |  | forced degradation outcome [2]: formation of Hydrocortisone, other common degradants
3 | C[C@]12CCC(=O)C=C1CC[C@@H]1[C@@H]2[C@@H](O)C[C@@]2(C)[C@H]1CC[C@]2(O)C(=O)COP(=O)(O)O [Hydrocortisone sodium phosphate] |  |  |  |  |  |  | genotoxicity assessment [3]: not a genotoxic product; susceptibility to hydrolysis [4]: prone to general acid-catalyzed hydrolysis at pH<7.5
4 | C[C@]12CCC(=O)C=C1CC[C@@H]1[C@@H]2[C@@H](O)C[C@@]2(C)[C@H]1CC[C@]2(O)C(=O)COP(=O)(O)O [Hydrocortisone Sodium Phosphate] | 100.9% | 0.00% | 101.4% | 0.06% | 99.5% | 0.00% | 
5 | C[C@]12CCC(=O)C=C1CC[C@@H]1[C@@H]2[C@@H](O)C[C@@]2(C)[C@H]1CC[C@]2(O)C(=O)COP(=O)([O-])[O-].[Na+].[Na+] | 97.8% | 0.20% | 99.0% | 1.1% | 96.5% | 1.5% | 
